Here are results for 13 molecules from patent US20090042912A1, “DIPHENYLIMIDAZOLYL COMPOUNDS AS INHIBITORS OF beta-SECRETASE” (Wyeth, priority 2004, published 2009).

Where two headings read alike, the source gives them in different places.

One data set concerns the target T1, human BACE2 (Homo sapiens, UniProt Q9Y5Z0).
T1 sequence (Q9Y5Z0 63-518): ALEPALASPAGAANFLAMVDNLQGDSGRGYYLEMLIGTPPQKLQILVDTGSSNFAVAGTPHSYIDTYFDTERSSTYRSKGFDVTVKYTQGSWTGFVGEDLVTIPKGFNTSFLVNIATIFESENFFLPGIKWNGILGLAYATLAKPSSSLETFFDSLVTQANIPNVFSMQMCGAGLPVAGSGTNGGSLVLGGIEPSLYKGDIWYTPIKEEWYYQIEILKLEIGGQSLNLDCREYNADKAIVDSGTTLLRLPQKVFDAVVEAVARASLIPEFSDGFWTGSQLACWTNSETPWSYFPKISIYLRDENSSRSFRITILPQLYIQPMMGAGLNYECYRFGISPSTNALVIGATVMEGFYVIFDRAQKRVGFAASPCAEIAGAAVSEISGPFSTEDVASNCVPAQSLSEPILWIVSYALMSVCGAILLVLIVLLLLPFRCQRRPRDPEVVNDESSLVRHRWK
Kind of data set: Fluorescent kinetic assay for human recombinant BACE 2 (WABC-6 peptide substrate). It is filed as biochemical. The note with it: for IC50: 1.5 nM enzyme, 25 μM substrate, pH 4.5, room temperature; for inhibition at 25 µM: read-out: BACE2. % inhibition. The protocol: Fluorescent Kinetic Assay for Human Recombinant BACE 2
This assay is used to provide kinetic and selectivity parameters for the analyses of the tested compounds.
Temperature: room temperature.
Dilution and Mixing Steps: Total Reaction Volume.: 100 μL • 1.
Readings at λex 320 nm, λem 420 nm are taken every 40-sec for 30 min at room temperature and to determine the linear slope for substrate cleavage rate (vi).

The next data set addresses human BACE1 (Homo sapiens, UniProt P56817). In words: Fluorescent kinetic assay, inhibition of BACE1 (WABC-6 peptide substrate). In kind it is biochemical. The note with it: 10 nM enzyme, 25 μM substrate, pH 4.5, room temperature; read-out: IC50 (μM) BACE1. The protocol: Evaluation of the Enzyme Activity of Test Compounds and the Inhibition of hBACE1, MuBACE1 and hBACE2 by Test Compounds
The concentration is determined by absorbance at 354 nm using an extinction coefficient ε of 18172 M^−1cm^−1, The substrate stock is stored in small aliquots at −80° C. [Substrate Stock]=ABS^354 nm*10^6/18172 ([…])
Dilution and mixing steps: total reaction volume: 100 μL • 1. 2× inhibitor dilutions in buffer A (66.7 mM Na-Acetate, pH 4.5, 0.0667% CHAPS) are prepared, • 2. 4× enzyme dilution in buffer A (66.7 mM Na-Acetate, pH 4.5, 0.0667% CHAPS) are prepared, • 3. 100 μM substrate dilution in 1× PBS is prepared, • 4. 50 μL 2× Inhibitor and 25 μL 100 μM substrate are added to each well of 96-well plate (from DYNEX Technologies, VWR #: 11311-046), the immediately 25 μL 4× enzyme are added to the inhibitor and substrate mixer, the fluorescence readings are initiated.
Readings at λex 320 nm and λem 420 nm are taken every 40-sec for 30 min at room temperature to determine the linear slope for substrate cleavage rate (vi).

Sequence of human BACE1 (P56817 46-501): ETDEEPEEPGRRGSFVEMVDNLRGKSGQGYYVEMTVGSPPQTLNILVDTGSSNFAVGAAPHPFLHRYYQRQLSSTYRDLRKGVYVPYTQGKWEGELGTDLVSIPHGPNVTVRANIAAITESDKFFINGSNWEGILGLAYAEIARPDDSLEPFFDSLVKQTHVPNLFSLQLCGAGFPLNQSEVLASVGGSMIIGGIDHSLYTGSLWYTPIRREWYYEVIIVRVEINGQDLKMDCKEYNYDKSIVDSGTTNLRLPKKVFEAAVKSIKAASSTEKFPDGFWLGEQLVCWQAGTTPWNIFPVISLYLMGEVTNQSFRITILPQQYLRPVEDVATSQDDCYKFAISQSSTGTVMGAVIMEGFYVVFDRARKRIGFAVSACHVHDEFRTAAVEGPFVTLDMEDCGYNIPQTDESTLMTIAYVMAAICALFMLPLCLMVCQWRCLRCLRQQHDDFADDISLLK

Molecule `COCOc1ccc(C2(c3cccc(-c4cccnc4F)c3)N=C(N)N3CCCN=C32)cc1` (stereo not drawn) [Example 38, 8-[3-(2-Fluoro-pyridin-3-yl)-phenyl]-8-(4-methoxymethoxy-phenyl)-2,3,4,8-tetrahydro-imidazo[1,5-a]pyrimidin-6-ylamine] displayed a melting point of 95 to 105 °C. For the same molecule, the inhibition at 15.5 µM on human BACE2 (at 15.5 μM) was 47%. Further, on human BACE1, the IC50 worked out at 0.093 µM.
`COc1ccc(C2(c3cccc(-c4cccnc4F)c3)N=C(N)N3CCCN=C32)cc1` (stereo not drawn) [Example 21, 8-[3-(2-fluoropyridin-3-yl)phenyl]-8-(4-methoxyphenyl]-2,3,4,8-tetrahydroimidazo[1,5-a]pyrimidin-6-amine] had a melting point of 117 to 121 °C. Also, the IC50 at human BACE2 came out at 6.57 µM. Besides, the IC50 on human BACE1 came out at 0.09 µM.
Regarding `NC1=NC(c2ccc(OC(F)F)cc2)(c2cccc(-c3cccnc3F)c2)C2=NCC3(CCC3)CN12` (stereo not drawn) [Example 47, 8′-[4-(difluoromethoxy)phenyl]-8′-[3-(2-fluoropyridin-3-yl)phenyl]-2′,8′-dihydrospiro[cyclobutane-1,3′-imidazo[1,5-a]pyrimidin]-6′-amine], the melting point is 220 to 226 °C. Moreover, the IC50 at human BACE2 amounted to 1.15 µM. For the same molecule, at human BACE1, the IC50 came out at 0.01 µM.
The corresponding values for `NC1=NC(c2ccc(OC(F)F)cc2)(c2cccc(-c3cccnc3F)c2)C2=NCC3(CC3)CN12` (stereo not drawn) [Example 44, 8′-[4-(Difluoromethoxy)phenyl]-8′-[3-(2-fluoropyridin-3-yl)phenyl]-2′,8′-dihydrospiro[cyclopropane-1,3′-imidazo[1,5-a]pyrimidin]-6′-amine] are 98 to 108 °C, 2.26 µM and 0.02 µM.
In the case of `COc1ccc(C2(c3ccc(F)c(-c4cccnc4F)c3)N=C(N)N3CCCN=C32)cc1` (stereo not drawn) [Example 24, 8-[4-fluoro-3-(2-fluoropyridin-3-yl)phenyl]-8-(4-methoxyphenyl)-2,3,4,8-tetrahydroimidazo[1,5-a]pyrimidin-6-amine], the melting point amounted to 115 °C. For the same molecule, the concentration for half-maximal inhibition (IC50) at human BACE2 came to 8.18 µM. In addition, the 50% inhibitory concentration (IC50) on human BACE1 was 0.06 µM.
The molecule `NC1=NC(c2ccc(OC(F)(F)F)cc2)(c2cccc(-c3cncc(Cl)c3)c2)C2=NCCCN12` (stereo not drawn) [Example 20, 8-[3-(5-chloropyridin-3-yl)phenyl]-8-[4-(trifluoromethoxy)phenyl]-2,3,4,8-tetrahydroimidazo[1,5-a]pyrimidin-6-amine] registered a melting point of 112 to 116 °C. Moreover, the IC50 on human BACE2 came to 0.54 µM. Also, the IC50 at human BACE1 stood at 0.04 µM.
`NC1=NC(c2ccc(OC(F)(F)F)cc2)(c2cccc(-c3cncc(F)c3)c2)C2=NCCCN12` (stereo not drawn) [Example 19, 8-[3-(5-fluoropyridin-3-yl)phenyl]-8-[4-(trifluoromethoxy)phenyl]-2,3,4,8-tetrahydroimidazo[1,5-a]pyrimidin-6-amine] displayed a melting point of 112 to 118 °C. Further, the IC50 on human BACE2 was 3.22 µM. Besides, on human BACE1, the IC50 is 0.08 µM.
Consider `NC1=NC(c2ccc(OC(F)F)cc2)(c2cccc(-c3cccnc3F)c2)C2=NCC3(COC3)CN12` (stereo not drawn) [Example 46, 8-[4-(Difluoromethoxy)phenyl]-8-[3-(2-fluoropyridin-3-yl)phenyl]-2,8-dihydrospiro[imidazo[1,5-a]pyrimidine-3,3′-oxetan]-6-amine], for which the melting point lay within 96 to 107 °C. Moreover, the 50% inhibitory concentration (IC50) on human BACE2 was 0.55 µM. Further, the half-maximal inhibitory concentration (IC50) at human BACE1 was found to be 0.01 µM.
Molecule `NC1=NC(c2ccc(OC(F)(F)F)cc2)(c2cccc(-c3cc(F)cnc3F)c2)C2=NCCCN12` (stereo not drawn) [Example 28] showed a melting point of 94 to 102 °C. For the same molecule, the half-inhibitory concentration (IC50) at human BACE2 was 4.68 µM. Further, on human BACE1, the IC50 worked out at 0.06 µM.
In turn, `NC1=NC(c2cccc(-c3cccnc3F)c2)(c2ccc3c(c2)OC(F)(F)O3)C2=NCCCN12` (stereo not drawn) [Example 43, 8-(2,2-Difluoro-benzo[1,3]dioxol-5-yl)-8-[3-(2-fluoro-pyridin-3-yl)-phenyl]-2,3,4,8-tetrahydro-imidazo[1,5-a]pyrimidin-6-ylamine] displayed a melting point of 95 to 99 °C. The inhibition at 25 µM at human BACE2 (at 25 μM) turned out to be 53%. For the same molecule, the concentration for half-maximal inhibition (IC50) at human BACE1 amounted to 0.74 µM.
With `NC1=NC(c2ccc(OC(F)(F)F)cc2)(c2ccc(F)c(-c3cncc(F)c3)c2)C2=NCCCN12` (stereo not drawn) [Example 14, {8-[4-Fluoro-3-(5-fluoropyrimidin-3-yl)phenyl]-8-[4-(trifluoromethoxy)phenyl]-2,3,4,8-tetrahydroimidazo[1,5-a]pyrimidin-6-yl}amine], the melting point was in the range of 94 to 105 °C. Besides, at human BACE2, the inhibition at 25 µM amounted to 65%. Further, on human BACE1, the IC50 is 0.14 µM.
For `COc1ccc(C2(c3ccc(F)c(-c4cncnc4)c3)N=C(N)N3CCCN=C32)cc1` (stereo not drawn) [Example 23, 8-(4-fluoro-3-pyrimidin-5-ylphenyl)-8-(4-methoxyphenyl)-2,3,4,8-tetrahydroimidazo[1,5-a]pyrimidin-6-amine], the melting point is 122 °C. Further, the inhibition at 25 µM on human BACE2 (at 25 μM) was found to be 42%. For the same molecule, the IC50 on human BACE1 worked out at 0.12 µM.
With `NC1=NC(c2ccc(OC(F)F)cc2)(c2cccc(-c3cccnc3F)c2)C2=NCCCN12` (stereo not drawn) [Example 41, 8-(4-Difluoromethoxyphenyl)-8-[3-(2-fluoropyridin-3-yl)phenyl]-2,3,4,8-tetrahydroimidazo[1,5-a]pyrimidin-6-ylamine], the melting point was in the range of 104 to 114 °C. Also, the IC50 on human BACE2 was 1.23 µM. In addition, the IC50 on human BACE1 is 0.018 µM.

A word on the inhibition: it is the change of the read-out against control, counted positive when it falls. The melting point is the temperature of the solid-liquid transition. Usually IC50 stands for the concentration that inhibits the measured activity by half.
